As usually defined, the IC50 is the concentration at which inhibition is half-maximal.

Records with an inconclusive call do not appear. Active and inactive are the calls of the source. How the calls were made is not given here.

This assay relates to Mycobacterium tuberculosis non-replicating, growth inhibition. The experiment in a line: growth inhibition of non-replicating M. tuberculosis (AID 488890).
`Cc1ccc(C(=O)N2N=C(CC(C)C)CC2(O)C(F)(F)F)o1` (stereo not drawn): the IC50 was 6.3 µM.

Consider `CC(=O)c1ccc(NC(=O)CCc2ccc(C)o2)cc1`, for which the IC50 was 25.8 µM (inactive).

Regarding `CC1(C(=O)OCC(=O)Nc2nnc(-c3ccccc3)o2)CC1(Cl)Cl` (stereo not drawn), the IC50 was 3.19 µM.

In the case of `COc1ccc2nc(C)cc(N/N=C/c3ccc(F)cc3)c2c1`, the IC50 was 7.75 µM.

With `CCOC(=O)COc1ccc2c(c1)C(=O)CC1(CCCCC1)O2`, the IC50 is 0.6 µM.

For `Cc1ccc(C)c(-c2nnc(NC(=O)COc3ccccc3)o2)c1`, the IC50 was 1.29 µM.

For `CC(CN1CCOCC1)OC(=O)c1ccc(Br)cc1` (stereo not drawn), the IC50 was 1.51 µM.

As to `Nc1nonc1C(=O)N/N=C/c1ccc([N+](=O)[O-])o1`, the IC50 was 5.6 µM.

Consider `CCOC(=O)N/N=C\c1ccc([N+](=O)[O-])s1`, for which the IC50 is 9.1 µM.

Consider `N=c1n(Cc2ccc(Cl)cc2)c2ccccc2n1CC(O)COc1ccccc1` (stereo not drawn), for which the IC50 is 13.5 µM (inactive).

Turning to `Cc1nc2c(=O)n(C)c(=O)nc-2n(C)n1`, the IC50 is 8.25 µM.

For `CC(C)(C)c1ccc(OCCCC(=O)NC2=NCCS2)cc1`, the IC50 is 9.76 µM.

On to `c1ccc(CSc2ccc(-c3ccccn3)nn2)cc1`, for which the IC50 was 8.02 µM.

Regarding `C/C(=N\NC(=O)c1cccc(Cl)c1)C1C(=O)c2ccccc2C1=O`, the IC50 was 0.38 µM.

Turning to `C/C(=C\C(=O)c1ccncc1)Nc1ccccc1O`, the IC50 was 4.15 µM.

In the case of `Cc1ccc(NC(=O)CO/N=C/c2ccccc2C)c(C)c1`, the IC50 was 13 µM (inactive).

With `CCOc1ccc(C(=O)C(CN2CCOCC2)c2ccccc2)cc1` (stereo not drawn), the IC50 is 3.62 µM.

Regarding `CC(C)(c1ccccc1)c1ccc(OCC(O)CNC2CCN(Cc3ccccc3)CC2)cc1` (stereo not drawn), the IC50 is 5.9 µM.

For `CCCN1C(=O)S/C(=C\c2ccc(N3CCOCC3)o2)C1=O`, the IC50 is 25.2 µM (inactive).

Regarding `CCN1CCN(c2ccc(S(=O)(=O)N3CCCCC3)cc2NC(=O)c2ccc([N+](=O)[O-])o2)CC1`, the IC50 was 12.6 µM (inactive).

Take `O=C(COc1ccc2ccccc2c1)Nc1nccs1`: the half-maximal inhibitory concentration (IC50) was 5.88 µM.

Take `COC(=O)[C@@H](NC(=O)c1cc(COc2cncc(Cl)c2)on1)c1ccccc1`: the IC50 was 5.58 µM.

As for `CC(C)(C)c1cc(CN2CCC(O)CC2)cc(C(C)(C)C)c1O`, the IC50 was 6.92 µM.

With `Cc1ccsc1/C=N/NC(=O)c1ccncc1`, the IC50 was 2.05 µM.

For the compound `Cc1ccc2nc(-c3ccccn3)c(NC3CCCC3)n2c1`, the IC50 is 12.5 µM (inactive).

In the case of `Cc1cc(C)n(-c2nc(SCCN(C)C)c3c4c(sc3n2)CCCC4)n1`, the IC50 is 6.69 µM.

As to `COc1cc(OC)cc(OC(=O)c2ccc3c(=O)n4c(nc3c2)CCC4)c1`, the IC50 is 4.95 µM.

Take `O=C(COC(=O)CC12CC3CC(CC(C3)C1)C2)Nc1cccnc1Cl`: the IC50 is 15.2 µM (inactive).

On to `Clc1cccc(OCCN2CCN(CCOc3cccc(Cl)c3)CC2)c1`, for which the IC50 was 21.7 µM (inactive).

Regarding `CCOC(=O)c1csc(COc2ccc(OC)cc2)n1`, the IC50 was 7.75 µM.

For the compound `Cc1ccc(OCCCCn2ccnc2)c(Cl)c1`, the IC50 is 8.23 µM.

Consider `O=c1c2ccc(Cl)cc2nc(-c2cccc(C(F)(F)F)c2)n1O`, for which the IC50 is 0.33 µM.

With `CCOC(=O)N1CCC(N2CCCC(C(=O)c3ccc4cc(OC)ccc4c3)C2)CC1` (stereo not drawn), the IC50 is 18.7 µM (inactive).

As for `O=C(O)c1ccc(NS(=O)(=O)/C=C/c2ccccc2)cc1O`, the IC50 was 3.11 µM.

In the case of `O=C(COC(=O)Cc1ccc(Br)cc1)Nc1ccc(N2CCOCC2)cc1`, the IC50 was 39.1 µM (inactive).

For `CSC1=N/C(=C\c2ccc3c(c2)OCO3)C(=O)S1`, the IC50 was 4.95 µM.

As for `C/C(=N\Nc1cccc2cccnc12)c1ccccn1`, the IC50 is 32.7 µM (inactive).

For the compound `Cn1nnnc1Sc1ncnc2scc(-c3ccc[nH]3)c12`, the IC50 was 8.43 µM.

Take `O=C(NC1CCCCC1)c1nc2c(nnn2Cc2ccccc2Cl)c(=O)[nH]1`: the IC50 is 3.72 µM.

`CCn1c(-c2ccco2)nc2ccccc21`: the IC50 was 8.99 µM.

Turning to `C/C(=N\NC(=O)c1cc2ccccc2cc1O)c1ccc(C)o1`, the IC50 was 2.04 µM.

As for `CC1=C(C)/C(=N\OS(=O)(=O)c2ccccc2)C=CC1=O`, the IC50 was 1.47 µM.

On to `O=C(NNC(=S)NC(=O)c1cn(-c2ccccc2)nc1-c1ccccc1)c1ccncc1`, for which the IC50 is 21.9 µM (inactive).

Consider `Oc1ccccc1/C=N/Nc1ncc(Br)cn1`, for which the IC50 is 1.12 µM.

For the compound `Cc1cccc(NC(=O)COc2ccc(Br)cc2)n1`, the IC50 is 7.08 µM.

Regarding `CCCCNC(=O)Cc1ccc(C)cc1`, the concentration for half-maximal inhibition (IC50) was 5.46 µM.

Regarding `CC(Oc1ccc2ccccc2c1)C(=O)NNC(=S)NC(=O)c1ccco1` (stereo not drawn), the IC50 is 22.1 µM (inactive).

`CC1=NNC(=O)/C1=C\c1cn(-c2ccccc2)nc1-c1cccs1`: the IC50 is 4.96 µM.

Consider `Cn1c(=O)c(Oc2ccc(Cl)cc2)c(O)c2ccccc21`, for which the IC50 was 11.1 µM (inactive).

`CN(CCOCCOc1ccc(F)cc1)Cc1ccccc1`: the IC50 is 10.9 µM (inactive).

Regarding `CCOc1ccc2nc(/N=C/c3nc(-c4ccccc4)oc3O)sc2c1`, the concentration for half-maximal inhibition (IC50) was 6.2 µM.

As for `Cc1ccnc(NC(=O)COc2ccc3c(c2)CCC3)c1`, the IC50 is 1.7 µM.

Turning to `COc1cccc(N2C(=O)NC(=O)/C(=C/c3ccc([N+](=O)[O-])s3)C2=O)c1`, the IC50 was 17.1 µM (inactive).

Regarding `CCCC(C)C(=O)Nc1ccc(Cl)cn1` (stereo not drawn), the IC50 was 10.3 µM (inactive).

As to `O=C(COc1ccc(F)cc1)Nc1ccc2c(c1)OCCO2`, the IC50 is 6.38 µM.

On to `Cc1nnc(N/N=C/c2ccc(-c3ccc(Br)cc3)o2)n1N`, for which the IC50 was 3.49 µM.

Consider `COc1cc(/C=C/c2ccc3c([N+](=O)[O-])cccc3n2)ccc1OCC(=O)O`, for which the IC50 is 1.79 µM.

Take `Cn1ccsc1=NC(=O)c1ccccc1F`: the IC50 is 22.4 µM (inactive).

For the compound `O=C(CCS(=O)(=O)c1ccc(F)cc1)Nc1nc(-c2ccccn2)cs1`, the IC50 was 7.41 µM.

In the case of `C/C(=N\NC(=O)C(C)Oc1ccc([N+](=O)[O-])cc1)c1ccccn1` (stereo not drawn), the IC50 is 9.84 µM.

As to `O=C(O)c1ccc(-n2nc(C(F)(F)F)c3c2CCCC3)cc1`, the IC50 was 34.2 µM (inactive).

For the compound `Oc1ccc(Cl)cc1C1=NNC(c2cccs2)C1` (stereo not drawn), the IC50 is 3.85 µM.

Regarding `O=C(COc1ccc(Br)cc1)Nc1ccc([N+](=O)[O-])cn1`, the IC50 was 6.47 µM.

With `c1ccc(-c2n[nH]c(-c3ccccn3)n2)nc1`, the IC50 was 6.04 µM.

With `O=C(NCCCN1CCOCC1)c1ccc(CSc2ccc(Cl)cc2)cc1`, the IC50 is 29 µM (inactive).

On to `CC(C)n1c(=S)[nH]c2ccccc2c1=O`, for which the IC50 is 14.2 µM (inactive).

Turning to `O=C(Nc1nc(-c2ccccn2)cs1)c1ccco1`, the IC50 was 6.64 µM.

Turning to `O=C(CCN1CCOCC1)c1ccc(Br)cc1`, the 50% inhibitory concentration (IC50) is 3.83 µM.

Regarding `COc1cccc(NC(=O)COC(=O)Cc2ccc(Br)cc2)c1`, the IC50 was 12.7 µM (inactive).

Take `N#Cc1ccc(COC(=O)CCc2c[nH]c3ccccc23)cc1`: the IC50 is 4.68 µM.

With `Cc1ccccc1NC(=O)c1ccc([N+](=O)[O-])o1`, the concentration for half-maximal inhibition (IC50) is 7.05 µM.

With `O=c1oc(-c2ccccc2[N+](=O)[O-])nc2ccccc12`, the IC50 is 18.9 µM (inactive).

Turning to `CC(=O)c1ccc(OC(=O)c2ccc(-n3nc(C)cc3C)cc2)cc1`, the IC50 was 2.45 µM.

Consider `Cc1nn(C)cc1/C=N/NC(=O)c1sc2ccccc2c1Cl`, for which the IC50 is 27.8 µM (inactive).

As for `Cc1ccc(-n2cc(CNCCc3ncc(C)[nH]3)c(-c3ccc(F)cc3)n2)cc1`, the IC50 is 17.3 µM (inactive).

`COC(=O)c1ccc(CSc2nnc(-c3ccncc3)o2)o1`: the IC50 is 7.22 µM.

Regarding `O=C1c2cccc3c([N+](=O)[O-])ccc(c23)C(=O)N1c1ccccn1`, the IC50 is 4.86 µM.

As for `CCN1CCC(=NNC(=O)c2ccco2)CC1`, the IC50 is 42.6 µM (inactive).

On to `CCC(C)(C)NC(=O)c1ccc(Br)o1`, for which the IC50 is 18.6 µM (inactive).

As for `CC(C)(C)c1ccc(S(=O)(=O)NNC(=O)c2cc3ccccc3[nH]2)cc1`, the IC50 is > 25 µM (inactive).

Take `O=C(N/N=C\C=C\c1ccco1)c1cncc(Br)c1`: the IC50 was 34.4 µM (inactive).

`C/C(=N\NC(=O)c1c[nH]c2ccccc12)c1ccccn1`: the IC50 was 6.38 µM.

Take `CCC(=O)Nc1nc2ccccc2n1Cc1ccccc1`: the IC50 was 4.86 µM.

With `COC(=O)CCn1c(C)cc(C(=O)COc2ccccc2C(N)=O)c1C`, the 50% inhibitory concentration (IC50) is 9.88 µM.

In the case of `COCc1cc(=O)[nH]c(Nc2nc3ccccc3o2)n1`, the IC50 was 1.58 µM.

On to `O=C(CN1CCCCC1)Nc1nnc(-c2ccc([N+](=O)[O-])cc2)s1`, for which the IC50 was 11.7 µM (inactive).

Consider `Cc1ccc(CCC(=O)Nc2ccc([N+](=O)[O-])cc2)o1`, for which the IC50 is 15.1 µM (inactive).

`Cc1ccc(NC(=O)ON=C2CCCC2)cc1`: the IC50 was 1.97 µM.

Take `Cc1ccc2c(c1)c(C1=c3ccccc3=NC1=O)c(O)n2C`: the IC50 is 4.42 µM.

Take `O=C(NC(=S)NNC(=O)[C@H]1C[C@@H]1c1ccccc1)c1cccc(F)c1`: the IC50 was 6.69 µM.

`CCOC(=O)c1ccc(-c2ccc(C(=O)Nc3cccnc3)o2)cc1`: the IC50 was 0.84 µM.

Turning to `CCCCNC(=O)Nc1nnc(-c2ccc(OCC)cc2)o1`, the IC50 is 21.9 µM (inactive).

Turning to `O=C(Nc1ccccc1)c1cc2ccccc2o1`, the IC50 is 4.57 µM.

`COC(=O)N/N=C/c1ccc([N+](=O)[O-])s1`: the IC50 was 17 µM (inactive).

For `Cn1c(SCCOc2cccc(Cl)c2)nnc1-c1ccncc1`, the IC50 is 11.4 µM (inactive).

For `Cc1ccc(/C=C2/C(=O)NC(=O)N(CCc3ccc(F)cc3)C2=O)s1`, the IC50 is 16.7 µM (inactive).

On to `COc1cc(NCCC(=O)c2cccs2)c(OC)cc1Cl`, for which the 50% inhibitory concentration (IC50) was 4.04 µM.

In the case of `CCC1CCc2sc(C(=O)NNC(=O)c3ccncc3)cc2C1` (stereo not drawn), the IC50 is 1.97 µM.

Turning to `COC(=O)[C@H](CC(C)C)NC(=O)NCCC1=CCCCC1`, the IC50 is 12.8 µM (inactive).

For `COc1ccc(NC(=O)C2COc3ccccc3O2)cc1` (stereo not drawn), the IC50 was 4.43 µM.

Consider `O=C(OCC#CCSc1nc2ccccc2o1)c1ccco1`, for which the half-inhibitory concentration (IC50) is 5.75 µM.

`O=C(CCNc1cccc(Cl)c1)c1ccco1`: the IC50 is 5.4 µM.

Regarding `N#Cc1ccsc1NC(=O)c1ccc(Cl)c([N+](=O)[O-])c1`, the IC50 was 4.4 µM.

The values are drawn from PubChem BioAssay AID488890 (Southern Research Specialized Biocontainment Screening …, 2010).
